{"source": "paper PMC6273843", "about": "“Synthesis and Selective Cytotoxic Activities on Rhabdomyosarcoma and Noncancerous Cells of Some Heterocyclic Chalcones” (Molecules, 2016)", "key": {"[1]": {"tested_on": "Human muscle rhabdomyosarcoma (RMS) cell line (ATCC CCL-136)", "assay": "MTT cell proliferation (cytotoxicity) assay on RMS cells", "format": "cell-based", "details": "for IC50: MTT, 24 h incubation with sample"}, "[2]": {"assay": "MTT cytotoxicity assay on noncancerous LLC-PK1 cells", "format": "cell-based, Pig", "details": "pig, LLC-PK1 pig kidney epithelial cells, read-out: % Cell Viability on Noncancer LLC-PK1 cells", "experimental": "(§1) Pig Kidney Epithelial (LLC-PK1) cell line (ATCC® CL-101™) was a generous gift of Prof. Jeong Hill Park, Research Institute of Pharmaceutical Science (College of Pharmacy, Seoul National University, Seoul 151-172, Korea).\n(§2) RMS or LLC-PK1 cells were seeded and cultured in EMEM medium (Gibco, Waltham, MA, USA) supplemented with 10% fetal calf serum (FCS) (Gibco), 2 mM L-glutamine, 100 IU/mL penicillin and 100 µg/mL streptomycin (Sigma-Aldrich, St. Louis, MO, USA) in a humidified atmosphere of 5% CO2 at 37 °C.\n(§3) The samples were dissolved in dimethyl sulfoxide (DMSO) at 10 mM and then diluted with culture medium to get three concentrations of 100; 50; 10 µM or 25; 12.5; 2.5 µM for cell proliferation assays. […] DMSO at different concentrations or was used as a blank control. Paclitaxel (Anzatax®, Mayne Pharma, Australia) was used as the reference compound at the concentration of 1, 5 and 10 µM (directly dissolved in culture medium).\n(§4) The cells were cells were seeded in 96-well plates at 4.2 × 10^4 cell/cm^2. After 24 h of incubation at 37 °C, 5% CO2, 100 μL of chalcone samples at tested concentrations, reference compound, and blank control (DMSO) was added and incubated for 24 hours at 37 °C, 5% CO2.\n(§5) Cell viability was evaluated as mitochondrial succinate dehydrogenase (SDH) activity, a marker of viable cells, using MTT test as described by Denizot and Lang. Briefly, SDH activity was detected after 3 hours incubation in culture medium without FCS containing 0.05 mg/mL MTT (3-4,5-dimethyl-thiazol-2-yl-2,5 diphenyl-tetrazolium bromide, Sigma-Aldrich), which is converted into formazan dissolved in acidified isopropanol (Merck, Darmstadt, Germany) by agitation for 10 min at room temperature. The produced purple solution was spectrophotometrically measured at 570 nm on Multiskan™ FC microplate Photometer (Thermo Scientific, Waltham, MA, USA).\n(§6) Each assay was done in triplicate and the standard deviation of absorbance was less than 10% of the mean. The results were expressed as Mean + SD of six cultures of one representative experiment and statistically analyzed by Mann-Whitney test with SPSS 22.0 for Windows software. Threshold of significance was set at p < 0.05.\n(§7) The IC50 values were calculated based on the linear regression between the concentrations of testing compound and the inhibition percentages of cells. The chalcone compounds with significant potential against RMS cells (IC50 < 20 μM) were then tested for their toxicity on LLC-PK1 cells."}, "[3]": {"tested_on": "Pig Kidney Epithelial (LLC-PK1) cell line (ATCC CL-101)", "assay": "MTT cytotoxicity assay on noncancerous LLC-PK1 cells", "format": "cell-based", "details": "LLC-PK1 cells", "experimental": "as §1, §2, §3, §4, §5, §6, §7"}, "[4]": {"assay": "MTT cytotoxicity assay on noncancerous LLC-PK1 cells", "format": "cell-based", "details": "pig, LLC-PK1 pig kidney epithelial cells, read-out: % Cell Viability on Noncancer LLC-PK1 cells"}}, "note": "Like-named read-outs stand apart in the source and are kept apart here."}
{"compound": "O=C(/C=C/c1ccccc1Cl)c1ccc2c(c1)Nc1ccccc1S2", "note": "[Compound 7, (E)-3-(2-Chlorophenyl)-1-(10H-phenothiazin-2-yl)prop-2-en-1-one]", "values": [{"measurement": "IC50", "setting": "[1]; Homo sapiens, 24 h", "value": "< 20", "unit": "µM"}, {"measurement": "IC50", "setting": "[1]", "value": "18 ± 1.63", "unit": "µM"}, {"measurement": "viability at 24 h, 10 µM", "setting": "[2]; 10 μM", "value": "100 ± 6.5", "unit": "%"}, {"measurement": "viability at 24 h, 50 µM", "setting": "[2]", "value": "109 ± 10.9", "unit": "%"}, {"measurement": "viability at 24 h, 100 µM", "setting": "[2]", "value": "94.8 ± 7.6", "unit": "%"}, {"measurement": "toxicity on the noncancerous LLC-PK1 cell line (in words)", "setting": "[3]", "value": "almost complete absence of toxicity"}, {"measurement": "melting point", "value": "202 to 203", "unit": "°C"}]}
{"compound": "(E)-3-(Pyridin-3-yl)-1-(2-hydroxyphenyl)prop-2-en-1-one [Compound 18]", "values": [{"measurement": "IC50", "setting": "[1]", "value": "91.1 ± 2.45", "unit": "µM"}]}
{"compound": "O=C(/C=C/c1cccs1)c1ccc2c(c1)Nc1ccccc1S2", "note": "[Compound 9, (E)-3-(Thiophen-2-yl)-1-(10H-phenothiazin-2-yl)prop-2-en-1-one]", "values": [{"measurement": "IC50", "setting": "[1]; Homo sapiens, 24 h", "value": "< 20", "unit": "µM"}, {"measurement": "IC50", "setting": "[1]", "value": "12.5 ± 1.74", "unit": "µM"}, {"measurement": "viability at 24 h, 10 µM", "setting": "[2]; 10 μM", "value": "98.8 ± 10.6", "unit": "%"}, {"measurement": "viability at 24 h, 50 µM", "setting": "[2]", "value": "98.2 ± 7.3", "unit": "%"}, {"measurement": "viability at 24 h, 100 µM", "setting": "[2]", "value": "97.1 ± 5", "unit": "%"}, {"measurement": "toxicity on the noncancerous LLC-PK1 cell line (in words)", "setting": "[3]", "value": "almost complete absence of toxicity"}, {"measurement": "melting point", "value": "229 to 230", "unit": "°C"}]}
{"compound": "O=C(/C=C/c1ccccc1O)c1cccs1", "note": "[Compound 11]", "values": [{"measurement": "IC50", "setting": "[1]; Homo sapiens, 24 h", "value": "48.8 ± 2.42", "unit": "µM"}]}
{"compound": "CN(C)c1ccc(/C=C/C(=O)c2ccc3c(c2)Nc2ccccc2S3)cc1", "note": "[Compound 1, (E)-3-(4-(N,N-Dimethylamino)phenyl)-1-(10H-phenothiazin-2-yl)prop-2-en-1-one]", "values": [{"measurement": "melting point", "value": "232 to 233", "unit": "°C"}]}
{"compound": "O=C(/C=C/c1cccc(Br)c1)c1ccc2c(c1)Nc1ccccc1S2", "note": "[Compound 3, (E)-3-(3-Bromophenyl)-1-(10H-phenothiazin-2-yl)prop-2-en-1-one]", "values": [{"measurement": "melting point", "value": "230 to 232", "unit": "°C"}]}
{"compound": "O=C(/C=C/c1ccc(Cl)cc1)c1cccs1", "note": "[Compound 10]", "values": [{"measurement": "IC50", "setting": "[1]; Homo sapiens, 24 h", "value": "49.6 ± 3.2", "unit": "µM"}]}
{"compound": "COc1ccc(C(=O)/C=C/c2ccccn2)c(O)c1", "note": "[Compound 19, (E)-3-(Pyridin-2-yl)-1-(2-hydroxy-4-methoxyphenyl)prop-2-en-1-one]", "values": [{"measurement": "IC50", "setting": "[1]; Homo sapiens, 24 h", "value": "26.6 ± 1.72", "unit": "µM"}, {"measurement": "melting point", "value": "130 to 131", "unit": "°C"}]}
{"compound": "O=C(/C=C/c1ccc(OCc2ccccc2)cc1)c1ccc2c(c1)Nc1ccccc1S2", "note": "[Compound 2, (E)-3-(4-Benzyloxyphenyl)-1-(10H-phenothiazin-2-yl)prop-2-en-1-one]", "values": [{"measurement": "melting point", "value": "215 to 216", "unit": "°C"}]}
{"compound": "CN(C)c1ccc(/C=C/C(=O)c2ccco2)cc1", "note": "[Compound 15]", "values": [{"measurement": "IC50", "setting": "[1]; Homo sapiens, 24 h", "value": "77.3 ± 4.69", "unit": "µM"}]}
{"compound": "CC(=O)O[C@H]1C(=O)[C@@]2(C)[C@H]([C@H](OC(=O)c3ccccc3)[C@]3(O)C[C@H](OC(=O)[C@H](O)[C@@H](NC(=O)c4ccccc4)c4ccccc4)C(C)=C1C3(C)C)[C@]1(OC(C)=O)CO[C@@H]1C[C@@H]2O", "note": "[Paclitaxel, reference compound]", "values": [{"measurement": "IC50", "setting": "[1]; Homo sapiens, 24 h", "value": "10.8 ± 0.47", "unit": "µM"}, {"measurement": "viability at 24 h, 10 µM", "setting": "[2]; 10 μM (paclitaxel reference)", "value": "108 ± 8.2", "unit": "%"}, {"measurement": "viability at 24 h, 2 µM", "setting": "[4]; 2 μM (paclitaxel reference)", "value": "103 ± 6", "unit": "%"}, {"measurement": "viability at 24 h, 20 µM", "setting": "[4]; 20 μM (paclitaxel reference)", "value": "75 ± 3.6", "unit": "%"}]}
{"compound": "COc1ccc(C(=O)/C=C/c2cccnc2)c(O)c1", "note": "[Compound 20, (E)-3-(Pyridin-3-yl)-1-(2-hydroxy-4-methoxyphenyl)prop-2-en-1-one]", "values": [{"measurement": "IC50", "setting": "[1]; Homo sapiens, 24 h", "value": "20.8 ± 1.33", "unit": "µM"}, {"measurement": "melting point", "value": "128 to 129", "unit": "°C"}]}
{"compound": "COc1cc(/C=C/C(=O)c2ccccn2)cc(OC)c1OC", "note": "[Compound 16]", "values": [{"measurement": "IC50", "setting": "[1]; Homo sapiens, 24 h", "value": "< 20", "unit": "µM"}, {"measurement": "IC50", "setting": "[1]", "value": "19.6 ± 1.04", "unit": "µM"}, {"measurement": "viability at 24 h, 10 µM", "setting": "[2]; 10 μM", "value": "99.1 ± 3.1", "unit": "%"}, {"measurement": "viability at 24 h, 50 µM", "setting": "[2]", "value": "102 ± 12.1", "unit": "%"}, {"measurement": "viability at 24 h, 100 µM", "setting": "[2]", "value": "104 ± 6.5", "unit": "%"}, {"measurement": "toxicity on the noncancerous LLC-PK1 cell line (in words)", "setting": "[3]", "value": "almost complete absence of toxicity"}]}
{"compound": "COc1ccc(/C=C/C(=O)c2ccc3c(c2)Nc2ccccc2S3)c(OC)c1", "note": "[Compound 8, (E)-3-(2,4-Dimethoxyphenyl)-1-(10H-phenothiazin-2-yl)prop-2-en-1-one]", "values": [{"measurement": "IC50", "setting": "[1]; Homo sapiens, 24 h", "value": "< 20", "unit": "µM"}, {"measurement": "IC50", "setting": "[1]", "value": "19.7 ± 1.63", "unit": "µM"}, {"measurement": "viability at 24 h, 10 µM", "setting": "[2]; 10 μM", "value": "97.3 ± 10.2", "unit": "%"}, {"measurement": "viability at 24 h, 50 µM", "setting": "[2]", "value": "103 ± 6.4", "unit": "%"}, {"measurement": "viability at 24 h, 100 µM", "setting": "[2]", "value": "105 ± 5.4", "unit": "%"}, {"measurement": "toxicity on the noncancerous LLC-PK1 cell line (in words)", "setting": "[3]", "value": "almost complete absence of toxicity"}, {"measurement": "melting point", "value": "178 to 179", "unit": "°C"}]}
{"compound": "COc1cc(/C=C/C(=O)c2ccco2)cc(OC)c1OC", "note": "[Compound 14]", "values": [{"measurement": "inhibition at 25 µM", "setting": "[1]; Homo sapiens, 25 μM", "value": 42.9, "unit": "%"}, {"measurement": "inhibition at 50 µM", "setting": "[1]; Homo sapiens, 50 μM", "value": 26.5, "unit": "%"}, {"measurement": "inhibition at 100 µM", "setting": "[1]; Homo sapiens, 100 μM", "value": 15.1, "unit": "%"}, {"measurement": "IC50", "setting": "[1]; Homo sapiens, 24 h", "value": "29.1 ± 1.82", "unit": "µM"}]}
{"compound": "(E)-3-(Pyridin-2-yl)-1-(2-hydroxyphenyl)prop-2-en-1-one [Compound 17]", "values": [{"measurement": "IC50", "setting": "[1]", "value": "92.9 ± 6.14", "unit": "µM"}]}
{"compound": "COc1cc(/C=C/C(=O)c2cccs2)cc(OC)c1OC", "note": "[Compound 13]", "values": [{"measurement": "IC50", "setting": "[1]; Homo sapiens, 24 h", "value": "26.6 ± 1.42", "unit": "µM"}]}
